Reference: US7238727B2, “Compositions for improving lipid metabolism” (Chugai Seiyaku Kabushiki Kaisha, priority 2000, dated 2007)

Legend:
Assay type in all cases: in vivo
[1] = tested on: matured rat models fed with high-fat diets; assay: Peritesticular adipose tissue weight in rats fed a high-fat diet; details: for adipose tissue weight less than that of casein+lard group / mean adipose tissue weight relative to casein+lard group: 3.0% L-valine + 8.4% lard; for peritesticular adipose tissue weight: feed with 3.0% L-valine + 8.4% lard, mean±standard deviation, n=3
Protocol: To evaluate the effects of valine on lipid metabolism, the effects of the administration of L-valine containing feeds were examined on matured rat models fed with high-fat diets.
18 Crj:CD(SD) IGS male rats aged 12 weeks (body weight: 420 to 464 g, 443 g on average) were pre-fed for 5 days (not more than 4 animals/cage, temperature: 20 to 26° C., humidity: 30 to 70%, illumination: 8:00 to 20:00). During the pre-feeding period, the animals were maintained on a feed (constant feeding) and water (using a water supplier) as desired.
(§1) After the completion of the pre-feeding, the animals were divided into 6 groups depending on feed and administration period. Rats of valine+lard groups were fed with a solid feed prepared by adding 8.4% lard (CAMERIA: manufactured by Romi Smilfood B. V.) and 3.0% L-valine (JP, manufactured by Ajinomoto Co., Inc.) to a conventional feed (CMF: manufactured by Oriental Yeast Co., Ltd.) for 2 or 4 weeks. Animals of casein+lard groups (i.e., control groups) were fed with a solid feed prepared by adding 8.4% lard and 3.0% milk-origin casein (manufactured by Wako Pure Chemical Industries, Ltd.) to the conventional feed (CMF: manufactured by Oriental Yeast Co., Ltd.) for 2 or 4 weeks. Animals of normal food groups were fed with a solid feed which was the conventional feed (CMF: manufactured by Oriental Yeast Co., Ltd.) for 2 or 4 weeks. During the experimental period, the rats of each group were maintained on the feed (constant feeding) and water (using a water supplier) as desired. Each group had 3 rats which were fed in a single cage (temperature: 20 to 26° C., humidity: 30 to 70%, illumination: 8:00 to 20:00) throughout the experimental period.
(§2) After 2 or 4 weeks, the blood samples of the animals of each group were collected from the abdominal aorta and then the animals were sacrificed by bleeding under etherization followed by autopsy. As intraperitoneal adipose tissue, the adipose tissue around the left testis and epididymis was weighed. The collected blood samples were subjected to a serobiochemical examination and the like.

[2] = tested on: rabbit atherosclerotic model; assay: Plaque formation in aortic arch specimens; design: key to plaque formation in specimens of aortic arch: +: visible slight plaque formation; ++: visible moderate plaque formation; −: no visible plaque formation; details: 13 weeks; for plaque formation in specimens of aortic arch: feed with 0.2% cholesterol + 3.0% L-valine
Protocol: (§3) In order to evaluate the efficacy of valine on atherosclerosis and fatty liver, an L-valine containing feed was administered to a rabbit atherosclerotic model and its effect was investigated. Nine New Zealand White male rabbits aged 8 weeks (average body weight, 2.06 kg) were divided into three groups (n=3) by feed and fed for 13 weeks (temperature, 20 to 26° C.; humidity, 30 to 70%; illumination, 8:00 to 20:00). The untreated group was given an ordinary feed (NOSAN feed for laboratory animals, LABOR STOCK, manufactured by Nihon Nosan Kogyo, K.K.). As for the atherosclerotic model, the control group was given the ordinary feed plus 0.2% cholesterol (manufactured by Wako Pure Chemical Industries, Ltd.), and the valine group was given the ordinary feed plus 0.2% cholesterol plus 3.0% L-valine (JP, manufactured by Ajinomoto Co., Inc.). Throughout the experiment, the rabbits of each group were maintained on the feed (constant feeding) and water (using a water supplier) as desired. After 13 weeks, blood samples were collected from the abdominal aorta of the animals of each group under etherization and the animals were then sacrificed by bleeding. By subsequent autopsy, the degree of atherosclerotic lesion (plaque formation) in thoracic aorta and the degree of fatty liver were compared. Sections of the thoracic aorta and the liver were also prepared and examined histopathologically for intimal thickening and the formation of fat droplets.

[3] = tested on: rabbit atherosclerotic model; assay: Intimal thickening in HE stained thoracic aorta sections; details: 0.2% cholesterol + 3.0% L-valine, 13 weeks
Protocol: as §3, with “Nine” for “In order to evaluate the efficacy of valine on atherosclerosis and fatty liver, an L-valine containing feed was administered to a rabbit atherosclerotic model and its effect was investigated. Nine”, “droplets. Sections of the thoracic aorta were HE stained (hematoxylin-eosin stained).” for “droplets.”

[4] = tested on: matured rat models fed with high-fat diets; assay: Intraperitoneal adipose tissue area by abdominal CT scanning; details: 4 weeks-feeding group
Text: as §1
22 days after the initiation of the experiment, one rat of each of the 4 weeks-feeding groups was subjected to the abdominal CT scanning (slice width: 5 mm) under anesthesia with Nembutal. From the CT image thus obtained, the intraperitoneal adipose tissue area was determined as the mean of the intraperitoneal adipose-containing areas in posterior 4 slices from the sites where no kidney was observed.

[5] = tested on: matured rat models fed with high-fat diets; assay: Serobiochemical examination of rats fed a high-fat diet
Text: as §1, §2

[6] = tested on: rabbit atherosclerotic model; assay: Fatty liver by naked eye and HE stained liver sections; details: 0.2% cholesterol + 3.0% L-valine, 13 weeks
Protocol: as §3, with “Nine” for “In order to evaluate the efficacy of valine on atherosclerosis and fatty liver, an L-valine containing feed was administered to a rabbit atherosclerotic model and its effect was investigated. Nine”

[7] = 2 weeks feeding, mean±standard deviation, n=3
[8] = 4 weeks feeding, mean±standard deviation, n=3

SMILES: CC(C)[C@H](N)C(=O)O [valine, L-valine]
- adipose tissue weight compared with normal food group ([1]; 2 weeks feeding): smaller than that of the normal food group
- adipose tissue weight less than that of casein+lard group ([1]; 2 weeks feeding): 30%
- mean adipose tissue weight relative to casein+lard group ([1]; 2 weeks feeding): about 0.70 times
- peritesticular adipose tissue weight ([1]; 2 weeks feeding): 2.55 ± 0.38 g
- adipose tissue weight compared with normal food group ([1]; 4 weeks feeding): smaller than that of the normal food group
- adipose tissue weight less than that of casein+lard group ([1]; 4 weeks feeding): 26%
- mean adipose tissue weight relative to casein+lard group ([1]; 4 weeks feeding): about 0.74 times
- peritesticular adipose tissue weight ([1]; 4 weeks feeding): 2.92 ± 0.40 g
- increase in the adipose tissue weight ([1]; both 2 weeks and 4 weeks feeding, feed intake almost the same): inhibited
- plaque formation compared with control group ([2]; 0.2% cholesterol + 3.0% L-valine, n=3): no plaque formation was visible, or plaque formation was visible but to a lesser extent than in the control group
- plaque formation in specimens of aortic arch ([2]; animal 1): −
- plaque formation in specimens of aortic arch ([2]; animal 2): −
- plaque formation in specimens of aortic arch ([2]; animal 3): +
- intimal thickening of thoracic aorta [3]: intimal thickening was hardly visible
- increase in the intraperitoneal adipose tissue area versus casein+lard group ([4]; CT): more inhibited
- intraperitoneal adipose tissue area ([4]; CT 22 days after initiation, n=1): 3.2 cm^2
- intraperitoneal adipose tissue relative to casein+lard group ([4]; CT, n=1): about 0.65 times
- mean free fatty acid level relative to casein+lard group ([5]; 2 weeks feeding): about 0.73 times
- mean lipid peroxide level relative to casein+lard group ([5]; 2 weeks feeding): about 0.42 times
- mean triacylglycerol level relative to casein+lard group ([5]; 2 weeks feeding): about 0.54 times
- mean β-lipoprotein level relative to casein+lard group ([5]; 2 weeks feeding): about 0.53 times
- mean serum free fatty acid level [5, 7]: 0.35±0.06 mEq/L
- mean serum lipid peroxide level [5, 7]: 1.1 ± 0.7 nmol/dL
- mean serum triacylglycerol level [5, 7]: 52.0 ± 21.9 mg/dL
- mean serum β-lipoprotein level [5, 7]: 33.3 ± 14.5 mg/dL
- mean free fatty acid level relative to casein+lard group ([5]; 4 weeks feeding): about 0.82 times
- mean triacylglycerol level relative to casein+lard group ([5]; 4 weeks feeding): about 0.60 times
- mean β-lipoprotein level relative to casein+lard group ([5]; 4 weeks feeding): about 0.62 times
- mean serum free fatty acid level [5, 8]: 0.36±0.11 mEq/L
- mean serum triacylglycerol level [5, 8]: 67.7 ± 33.5 mg/dL
- mean serum β-lipoprotein level [5, 8]: 41.0 ± 10.8 mg/dL
- yellowing of the liver (fatty liver), naked eye [6]: no yellowing of the liver was observed, or yellowing of the liver was visible but to a lesser extent than in the control group
- fat droplets and swelling of hepatocytes ([6]; HE stained liver sections): hepatocytes contained such a small number of fat droplets that they experienced no visible swelling
